Experimental data reported in article PMC11171218, “N-Benzylated 5-Hydroxybenzothiophene-2-carboxamides as Multi-Targeted Clk/Dyrk Inhibitors and Potential Anticancer Agents” (Cancers, 2024).

What was measured:
[1] = test system: T24 cells; test: Cell cycle assay (PI staining, flow cytometry); type: cell-based, human; settings: 30–50 µM, 24 h
Method: Cells were fixed with 75% ethanol and then stained with 50 μg/mL propidium iodide (PI; Cat# P4170, Sigma-Aldrich, St. Louis, MO, USA) at room temperature for 1 h. Cell cycle was analyzed by flow cytometry.
Figure 2 Analysis of cell cycle progression upon treatment with compounds 12 and 17. T24 cells were treated with DMSO (0.1%), 12 (30–50 µM), or 17 (30–50 µM) for 24 h. Cell cycle was examined by propidium iodide (PI) staining and flow cytometry. All data are expressed as the mean ± S.E.M. (n = 3).

[2] = test system: Bcl-2; test: Western blot, Bcl-2 in T24 cells; type: cell-based, human; settings: for Decrease in the antiapoptotic marker Bcl-2: 50 μM; for Expression of antiapoptotic protein Bcl-2: 10–50 μM, 24 h, Western blot
From the text: (§1) Cell lysates were sequentially suspended in commercial RIPA Buffer (pH 7.4; Cat# RB4475, Bio Basic, Markham, Ontario, Canada) containing Protease Inhibitor Cocktail and PhosSTOP (Merck, Darmstadt, Germany), boiled in sodium dodecyl sulphate (SDS) sample buffer, separated by SDS-polyacrylamide gel electrophoresis (PAGE), and electrophoresed onto a PVDF membrane. Antibodies used in this study were Bcl-2 (Cat#A19693, RRID: AB_2862738) and Bax (Cat# A0207, RRID: AB_2757021) from ABclonal (Boston, MA, USA); cleaved caspase-3 (Cat# 9662, RRID: AB_331439) and GAPDH (Cat# 8884, RRID:AB_11129865) from Cell Signaling Technology (Beverly, MA, USA). The labeled signals were determined using HRP-conjugated secondary antibodies and the Bio-rad ChemiDoc™ MP Imaging System (Berkeley, CA, USA).
(§2) Figure 4 Examining the effect of 12 and 17 on proapoptotic and antiapoptotic pathways. T24 cells were treated with DMSO (0.1%), 12 (30–50 µM), or 17 (30–50 µM) for 24 h. Expression levels of cleaved caspase-3, Bax, Bcl-2, and GAPDH were analyzed by Western blot by corresponding antibodies. The quantitation of the cleaved caspase-3/GAPDH, Bax/GAPDH, and Bcl-2/GAPDH ratio are shown. All data are expressed as the mean ± S.E.M. (n = 3). * p < 0.05, ** p < 0.01, *** p < 0.001 compared with the DMSO group.

[3] = test system: Bax; test: Western blot, Bax in T24 cells; type: cell-based, human; settings: 10–50 μM, 24 h
From the text: as §1, §2

[4] = Cell viability in normal cells, HaCaT; type: cell-based; settings: human, HaCaT normal human keratinocytes; for viability at 20 µM: mean (n = 3); for IC50: 50% inhibition
Method: (§3) All cells were purchased from Bioresource Collection and Research Center (Hsinchu, Taiwan) and cultured in corresponding media supplemented with 10% fetal bovine serum, 1 × Antibiotic-Antimycotic at 37 °C in a humidified incubator with 5% CO2. […] T24 cells were cultured in McCoy’s 5a media. IEC-6 cells were cultured in DMEM media supplemented with 5% fetal bovine serum, 1 × Antibiotic–Antimycotic, and 0.1 unit/mL insulin.
(§4) Cells were incubated with the Cell Counting Kit-8 (CCK-8) reagent (TargetMol, Boston, MA, USA) at 37 °C for 2 h. The cell viability was determined by spectrophotometer at 450 nm.

[5] = Cell viability in normal cells, IEC-6; type: cell-based; settings: rat, IEC-6 rat intestine epithelial cells (normal cells); for viability at 20 µM: mean (n = 3); for IC50: 50% inhibition
Method: as §3, §4

[6] = test system: T24 cells; test: Apoptosis assay (Annexin V-FITC/PI, flow cytometry); type: cell-based, human; settings: 24 h
Method: Apoptosis was examined by Annexin V-FITC/PI Apoptosis Kit (Cat# E-CK-A211, Elabscience, Houston, TX, USA) following the manufacturer’s protocol and analyzed by flow cytometry.
Figure 3 Annexin V and PI staining in T24 cells to investigate if compounds 12 and 17 could induce apoptotic death. T24 cells were treated with DMSO (0.1%), 12 (30–50 µM), or 17 (30–50 µM) for 24 h and then stained with Annexin V-FITC antibody and PI. The Annexin V-positive apoptotic cells were monitored using flow cytometry. All data are expressed as the mean ± S.E.M. (n = 3). * p < 0.05, ** p < 0.01 compared with the DMSO group. […] Best reading, upper row: Q1-UL 0.1%, Q1-UR 4.5%, Q1-LL 84.7%, Q1-LR 10.7%. Lower row: Q1-UL 0.2%, Q1-UR 5.1%, Q1-LL 84.9%, Q1-LR 9.8%. They are left out of lines because no compound is present.

Row | SMILES | Effect on cell cycle progression [1] | Decrease in the antiapoptotic marker Bcl-2 [2] | Expression of antiapoptotic protein Bcl-2 [2] | Level of Bax [3] | viability at 20 µM [4] [%] | IC50 [4] [µM] | viability at 20 µM [5] [%] | IC50 [5] [µM] | Apoptotic cell population (Annexin V-positive) ([6]; 50 µM) | Apoptotic cell population (Annexin V-positive) ([6]; 30 and 50 μM)
1 | COc1cccc(CNC(=O)c2cc3cc(O)ccc3s2)c1 [Compound 12, 5-Hydroxy-N-(3-methoxybenzyl)benzo[b]thiophene-2-carboxamide] | much weaker than those of compound 17 | approximately 0.5 fold | decreased the expression of the antiapoptotic protein, Bcl-2 | increased the proapoptotic levels of cleaved caspase-3 and Bax | 67.6 | > 20 | 96 | > 20 | increased the apoptotic cell population | –
2 | O=C(NCc1cc(F)cc(F)c1)c1cc2cc(O)ccc2s1 [Compound 17, N-(3,5-Difluorobenzyl)-5-hydroxybenzo[b]thiophene-2-carboxamide] | retain the cells in the G2/M phase | approximately 0.5 fold | decreased the expression of the antiapoptotic protein, Bcl-2 | increased the proapoptotic levels of cleaved caspase-3 and Bax | 64.9 | > 20 | 76.8 | > 20 | – | dose-dependently increased the apoptotic cell population
